The results in this text go back to patent publication US20100204203A1, “Chemical Compounds 637: Pyridopyrimidinediones as PDE4 Inhibitors” (priority 2007, published 2010).

Sequence of recombinant Human Phosphodiesterase B2 (PDE4B2) (Q07343 1-564 isoform Q07343-2): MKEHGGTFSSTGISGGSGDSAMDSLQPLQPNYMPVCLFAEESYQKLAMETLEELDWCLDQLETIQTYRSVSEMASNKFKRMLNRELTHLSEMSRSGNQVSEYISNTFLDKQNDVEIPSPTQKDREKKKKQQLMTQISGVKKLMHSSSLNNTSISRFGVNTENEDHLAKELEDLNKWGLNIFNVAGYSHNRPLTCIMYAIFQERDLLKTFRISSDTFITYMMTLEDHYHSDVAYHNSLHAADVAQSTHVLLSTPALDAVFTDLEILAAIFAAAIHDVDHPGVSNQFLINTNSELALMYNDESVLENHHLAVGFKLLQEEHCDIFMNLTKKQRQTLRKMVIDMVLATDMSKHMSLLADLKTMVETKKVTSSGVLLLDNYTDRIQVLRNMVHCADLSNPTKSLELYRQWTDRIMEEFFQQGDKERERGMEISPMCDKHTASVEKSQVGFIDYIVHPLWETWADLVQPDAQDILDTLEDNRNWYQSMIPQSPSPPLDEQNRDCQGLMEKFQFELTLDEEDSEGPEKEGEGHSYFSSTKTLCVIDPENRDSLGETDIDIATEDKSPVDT

This test deals with recombinant Human Phosphodiesterase B2 (PDE4B2) (Homo sapiens, UniProt Q07343). As to the kind of experiment: Human Phosphodiesterase B2 Radiometric Assay (yttrium silicate SPA beads, [3H]cyclic AMP). Format: biochemical. To be noted: recombinant human PDE4B2, radiometric SPA assay, 8 nM [3H]cyclic AMP; read-out: PDE4B2 pIC50 (converted). The gist of the method:
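Compounds were preincubated 30 min at 30 °C with 0.1 mg/mL PDE4B2 in 50 mM HEPES pH 7.5, 8.3 mM MgCl2, 1.7 mM EGTA, 0.01% Brij 35. Then 8 nM [3H]cAMP was added for 20 min, stopped with yttrium silicate SPA beads plus 18 mM ZnSO4 capturing product 5′AMP; pIC50 by curve fitting.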
Regarding `Cc1cc(C(=O)N[C@H]2CC[C@@H](n3c(=O)c4cc(F)cnc4n(-c4cccc(-c5ccc(CN6CCC(N7CCCCC7)CC6)cc5)c4)c3=O)CC2)nn1C` [Example 289, N-{cis-4-[1-[4′-(1,4′-bipiperidin-1′-ylmethyl)biphenyl-3-yl]-6-fluoro-2,4-dioxo-1,4-dihydropyrido[2,3-d]pyrimidin-3(2H)-yl]cyclohexyl}-1,5-dimethyl-1H-pyrazole-3-carboxamide], the IC50 was 0.0126 nM.

Regarding `C[C@@H]1CN(Cc2ccc(-c3cccc(-n4c(=O)n([C@H]5CC[C@@H](NC(=O)c6cc7ccccc7cn6)CC5)c(=O)c5cc(F)cnc54)c3)cc2)C[C@H](C)N1` [Example 304, N-{cis-4-[1-(4′-{[(3R,5S)-3,5-dimethylpiperazin-1-yl]methyl}biphenyl-3-yl)-6-fluoro-2,4-dioxo-1,4-dihydropyrido[2,3-d]pyrimidin-3(2H)-yl]cyclohexyl} isoquinoline-3-carboxamide], the IC50 was 0.0501 nM.

For `O=C(N[C@H]1CC[C@@H](n2c(=O)c3cc(F)cnc3n(-c3cccc(-c4ccccc4)c3)c2=O)CC1)c1cn2cc(F)ccc2n1` [Example 1, N-[cis-4-(1-biphenyl-3-yl-6-fluoro-2,4-dioxo-1,4-dihydropyrido[2,3-d]pyrimidin-3(2H)-yl)cyclohexyl]-6-fluoroimidazo[1,2-c]pyridine-2-carboxamide], the IC50 was 0.0251 nM.

Take `CC(C)CCCC(C)n1c(=O)n([C@H]2CC[C@@H](NC(=O)c3cn4cc(F)ccc4n3)CC2)c(=O)c2cc(F)cnc21` (stereo partly drawn) [Example 36, N-{cis-4-[1-(1,5-dimethylhexyl)-6-fluoro-2,4-dioxo-1,4-dihydropyrido[2,3-d]pyrimidin-3(2H)-yl]cyclohexyl}-6-fluoroimidazo[1,2-a]pyridine-2-carboxamide]: the IC50 was 6.31 nM.

With `CC(C)[C@H](N)C(=O)N[C@H]1CC[C@@H](n2c(=O)c3cc(F)cnc3n(-c3cccc(-c4ccc(CN5CCCN(C)CC5)cc4)c3)c2=O)CC1` [Example 314, N-{cis-4-[6-fluoro-1-{4′-[(4-methyl-1,4-diazepan-1-yl)methyl]biphenyl-3-yl}-2,4-dioxo-1,4-dihydropyrido[2,3-d]pyrimidin-3(2H)-yl]cyclohexyl}-L-valinamide], the IC50 is 0.398 nM.

Take `Cc1cc(C(=O)N[C@H]2CC[C@@H](n3c(=O)c4cc(F)cnc4n(-c4cccc(-c5ccc(CN6CCNCC6)cc5)c4)c3=O)CC2)nn1C` [Example 228, N-{cis-4-[6-fluoro-2,4-dioxo-1-[4′-(piperazin-1-ylmethyl)biphenyl-3-yl]-1,4-dihydropyrido[2,3-d]pyrimidin-3(2H)-yl]cyclohexyl}-1,5-dimethyl-1H-pyrazole-3-carboxamide]: the IC50 is 0.0251 nM.

For `O=C(N[C@H]1CC[C@@H](n2c(=O)c3cc(F)cnc3n(-c3cccc(-c4ccc(CNC5CCNCC5)cc4)c3)c2=O)CC1)c1cn2cc(F)ccc2n1` [Example 268, 6-Fluoro-N-{cis-4-[6-fluoro-2,4-dioxo-1-{4′-[(piperidin-4-ylamino)methyl]biphenyl-3-yl}-1,4-dihydropyrido[2,3-d]pyrimidin-3(2H)-yl]cyclohexyl}imidazo[1,2-a]pyridine-2-carboxamide], the IC50 is 0.0126 nM.

Take `CN(Cc1cc(O)ccc1-c1cccc(-n2c(=O)n([C@H]3CC[C@@H](NCc4cn5cc(F)ccc5n4)CC3)c(=O)c3cc(F)cnc32)c1)C1(CO)CC1` [Example 321, 6-fluoro-3-(cis-4-{[(6-fluoroimidazo[1,2-a]pyridin-2-yl)methyl]amino}cyclohexyl)-1-(4′-hydroxy-2′-{[[1-(hydroxymethyl)cyclopropyl](methyl)amino]methyl}biphenyl-3-yl)pyrido[2,3-c]pyrimidine-2,4(1H,3H)-dione]: the IC50 is 0.1 nM.

As for `CN(C)C1(C(=O)N[C@H]2CC[C@@H](n3c(=O)c4cc(F)cnc4n(-c4cccc(-c5ccc(CN6CCOCC6)cc5)c4)c3=O)CC2)CC1` [Example 124, 1-(dimethylamino)-N-{cis-4-[6-fluoro-1-[4′-(morpholin-4-ylmethyl)biphenyl-3-yl]-2,4-dioxo-1,4-dihydropyrido[2,3-d]pyrimidin-3(2H)-yl]cyclohexyl}cyclopropane-carboxamide], the IC50 was 0.00631 nM.

Turning to `C[C@@H]1CN(Cc2ccc(-c3cccc(-n4c(=O)n([C@H]5CC[C@@H](NC(=O)c6cn7cc(F)ccc7n6)CC5)c(=O)c5cc(F)cnc54)c3)cc2)C[C@H](C)N1` [Example 270, N-{cis-4-[1-(4′-{[(3R,5S)-3,5-Dimethylpiperazin-1-yl]methyl}biphenyl-3-yl)-6-fluoro-2,4-dioxo-1,4-dihydropyrido[2,3-d]pyrimidin-3(2H)-yl]cyclohexyl}-6-fluoroimidazo[1,2-a]pyridine-2-carboxamide], the IC50 is 0.00631 nM.

As for `O=C(N[C@H]1CC[C@@H](n2c(=O)c3cc(F)cnc3n(-c3cccc(-c4ccc(CN5CCCNCC5)cc4)c3)c2=O)CC1)c1cc(=O)c2ccccc2[nH]1` [Example 355, N-{cis-4-[1-[4′-(1,4-diazepan-1-ylmethyl)biphenyl-3-yl]-6-fluoro-2,4-dioxo-1,4-dihydropyrido[2,3-d]pyrimidin-3(2H)-yl]cyclohexyl}-4-oxo-1,4-dihydroquinoline-2-carboxamide], the IC50 was 0.0501 nM.

For the compound `O=c1c2cc(F)cnc2n(-c2cccc(-c3ccc(O)cc3CN3CCOCC3)c2)c(=O)n1[C@H]1CC[C@@H](NCc2cc(F)ccc2F)CC1` [Example 282, 3-{cis-4-[(2,5-difluorobenzyl)amino]cyclohexyl}-6-fluoro-1-[4′-hydroxy-2′-(morpholin-4-ylmethyl)biphenyl-3-yl]pyrido[2,3-d]pyrimidine-2,4(1H,3H)-dione], the IC50 was 0.794 nM.

`CC(C)NCCOc1ccc(-c2cccc(-n3c(=O)n([C@H]4CC[C@@H](NC(=O)c5cn6cc(F)ccc6n5)CC4)c(=O)c4cc(F)cnc43)c2)cc1` [Example 342]: the IC50 is 0.0316 nM.

For the compound `CN1CCN(CC(=O)N[C@H]2CC[C@@H](n3c(=O)c4cc(F)cnc4n(-c4cccc(-c5ccc(CN6CCCN(C)CC6)cc5)c4)c3=O)CC2)CC1` [Example 291, N-{cis-4-[6-fluoro-1-{4′-[(4-methyl-1,4-diazepan-1-yl)methyl]biphenyl-3-yl}-2,4-dioxo-1,4-dihydropyrido[2,3-d]pyrimidin-3(2H)-yl]cyclohexyl}-2-(4-methylpiperazin-1-yl)acetamide], the IC50 is 0.2 nM.

Turning to `CN1CCCN(Cc2ccc(-c3cccc(-n4c(=O)n([C@H]5CC[C@@H](NC(=O)c6cc7c(o6)CCCC7=O)CC5)c(=O)c5cc(F)cnc54)c3)cc2)CC1` [Example 310, N-{cis-4-[6-fluoro-1-{4′-[(4-methyl-1,4-diazepan-1-yl)methyl]biphenyl-3-yl}-2,4-dioxo-1,4-dihydropyrido[2,3-d]pyrimidin-3(2H)-yl]cyclohexyl}-4-oxo-4,5,6,7-tetrahydro-1-benzofuran-2-carboxamide], the IC50 was 0.126 nM.

For the compound `NC1(C(=O)N[C@H]2CC[C@@H](n3c(=O)c4cc(F)cnc4n(-c4cccc(-c5ccccc5)c4)c3=O)CC2)CC1` [Example 344, 1-amino-N-[cis-4-(1-biphenyl-3-yl-6-fluoro-2,4-dioxo-1,4-dihydropyrido[2,3-d]pyrimidin-3(2H)-yl)cyclohexyl]cyclopropanecarboxamide], the IC50 is 0.398 nM.

As to `CC(C)C(=O)N[C@H]1CC[C@@H](n2c(=O)c3cc(F)cnc3n(-c3cccc(-c4ccc(CN5CCN(C(C)C)CC5)cc4)c3)c2=O)CC1` [Example 238, N-{cis-4-[6-fluoro-1-{4′-[(4-isopropylpiperazin-1-yl)methyl]biphenyl-3-yl}-2,4-dioxo-1,4-di-hydropyrido[2,3-d]pyrimidin-3(2H)-yl]cyclohexyl}-2-methyl-propanamide], the IC50 is 0.2 nM.

As for `CN(C)CCc1ccc(-c2cccc(-n3c(=O)n([C@H]4CC[C@@H](NC(=O)c5cn6cc(F)ccc6n5)CC4)c(=O)c4cc(F)cnc43)c2)cc1` [Example 99, N-{cis-4-[1-{4′-[2-(dimethylamino)ethyl]biphenyl-3-yl}-6-fluoro-2,4-dioxo-1,4-dihydropyrido[2,3-d]pyrimidin-3(2H)-yl]cyclohexyl}-6-fluoroimidazo[1,2-a]pyridine-2-carboxamide], the IC50 was 0.126 nM.

As for `O=C(N[C@H]1CC[C@@H](n2c(=O)c3cc(F)cnc3n(-c3cccc(-c4ccccc4)c3)c2=O)CC1)c1cn2ccccc2n1` [Example 3, N-[cis-4-(1-biphenyl-3-yl-6-fluoro-2,4-dioxo-1,4-dihydropyrido[2,3-d]pyrimidin-3(2H)-yl)cyclohexyl]imidazo[1,2-a]pyridine-2-carboxamide], the IC50 was 0.0316 nM.

Consider `O=C(CN1CCCCC1)N[C@H]1CC[C@@H](n2c(=O)c3cc(F)cnc3n(-c3cccc(-c4ccc(O)cc4CN4CCOCC4)c3)c2=O)CC1` [Example 333, N-{cis-4-[6-fluoro-1-[4′-hydroxy-2′-(morpholin-4-ylmethyl)biphenyl-3-yl]-2,4-dioxo-1,4-dihydropyrido[2,3-d]pyrimidin-3(2H)-yl]cyclohexyl}-2-piperidin-1-ylacetamide], for which the IC50 is 2 nM.

For the compound `CN(C)Cc1ccccc1-c1cccc(-n2c(=O)n([C@H]3CC[C@@H](NC(=O)[C@H]4CCCN4C)CC3)c(=O)c3cc(F)cnc32)c1` [Example 88, N-{cis-4-[1-{2′-[(dimethylamino)methyl]biphenyl-3-yl}-6-fluoro-2,4-dioxo-1,4-dihydropyrido[2,3-d]pyrimidin-3(2H)-yl]cyclohexyl}-1-methyl-D-prolinamide], the IC50 was 50.1 nM.

On to `O=C(N[C@H]1CC[C@@H](n2c(=O)c3cc(F)cnc3n(-c3cccc(C#Cc4cccnc4)c3)c2=O)CC1)c1cn2ccccc2n1` [Example 6, N-{cis-4-[6-fluoro-2,4-dioxo-1-[3-(pyridin-3-ylethynyl)phenyl]-1,4-dihydropyrido[2,3-d]pyrimidin-3(2H)-yl]cyclohexyl}imidazo[1,2-a]pyridine-2-carboxamide], for which the IC50 is 0.00794 nM.
